Results as given in patent EP1173432B9, “PIPERIDINE-INDOLE COMPOUNDS HAVING 5-HT6 AFFINITY” (NPS Allelix Corp., priority 1999, dated 2000).
Structures can show the parent of a compound that is named as a salt.

How the values were obtained:
5-HT7 receptors = 5-HT7 receptors (Homo sapiens, UniProt P34969); test: Binding selectivity for 5-HT6 relative to the 5-HT7 receptor; details: selectivity 5-HT6 over 5-HT7
human 5-HT6 receptor = target: T1, human 5-HT6 receptor (Homo sapiens, UniProt P50406); test: Binding affinity for the 5-HT6 receptor (3H-LSD displacement, membranes of recombinant cells); details: 3H-LSD radioligand, 60 minute incubation at 37 °C
T1 construct: expressed in transfected cells; host or cells: recombinant cells
Protocol: All of the compounds of the invention were evaluated using cell types receptive specifically to the 5-HT6 receptor (for cloning and characterization of the human 5-HT6 receptor see Kohen, et al. J. Neurochemistry, 66, 1996: 47-56). […] After a 60 minute incubation at 37 °C, the incubation was terminated by vacuum filtration. The filters were washed with buffer and the filters were counted for radioactivity using liquid scintillation spectrometry. The affinity of the test compound for the 5-HT6 receptor was determined by computer-assisted analysis of the data and determining the amount of the compound necessary to inhibit 50% of the binding of the radioligand to the receptor. Concentrations ranging from 10^-11 M to 10^-5 M of the test compound were evaluated.

human 5-HT2C = target: T2, human 5-HT2C (Homo sapiens, UniProt P28335); test: Binding selectivity for 5-HT6 relative to the 5-HT2C receptor; details: selectivity 5-HT6 over 5-HT2C
T2 sequence (P28335 33-458): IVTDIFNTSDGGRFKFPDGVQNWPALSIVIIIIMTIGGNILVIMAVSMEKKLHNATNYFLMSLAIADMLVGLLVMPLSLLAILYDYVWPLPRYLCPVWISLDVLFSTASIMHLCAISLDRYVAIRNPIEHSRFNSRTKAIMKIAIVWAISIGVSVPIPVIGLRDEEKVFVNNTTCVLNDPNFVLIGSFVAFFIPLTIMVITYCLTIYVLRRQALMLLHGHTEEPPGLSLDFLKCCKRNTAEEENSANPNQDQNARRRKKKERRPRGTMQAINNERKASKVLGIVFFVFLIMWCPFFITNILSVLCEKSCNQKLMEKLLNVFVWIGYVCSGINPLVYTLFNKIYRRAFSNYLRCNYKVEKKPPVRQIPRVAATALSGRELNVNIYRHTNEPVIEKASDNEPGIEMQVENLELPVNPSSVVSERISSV

Sequence of 5-HT7 receptors (P34969 whole entry): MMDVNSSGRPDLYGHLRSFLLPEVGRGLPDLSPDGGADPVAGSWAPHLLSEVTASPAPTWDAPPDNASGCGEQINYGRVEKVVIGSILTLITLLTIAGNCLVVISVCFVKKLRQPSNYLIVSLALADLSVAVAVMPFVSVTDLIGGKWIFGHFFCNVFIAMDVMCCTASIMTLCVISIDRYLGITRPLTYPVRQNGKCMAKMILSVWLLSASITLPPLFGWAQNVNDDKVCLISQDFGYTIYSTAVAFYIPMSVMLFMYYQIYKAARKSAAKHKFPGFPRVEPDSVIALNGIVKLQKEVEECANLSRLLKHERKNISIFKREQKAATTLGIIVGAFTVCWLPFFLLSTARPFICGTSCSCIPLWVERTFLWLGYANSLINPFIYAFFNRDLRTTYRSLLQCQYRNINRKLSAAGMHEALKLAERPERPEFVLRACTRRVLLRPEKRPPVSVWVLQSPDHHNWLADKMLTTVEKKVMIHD
T1 sequence (P50406 whole entry): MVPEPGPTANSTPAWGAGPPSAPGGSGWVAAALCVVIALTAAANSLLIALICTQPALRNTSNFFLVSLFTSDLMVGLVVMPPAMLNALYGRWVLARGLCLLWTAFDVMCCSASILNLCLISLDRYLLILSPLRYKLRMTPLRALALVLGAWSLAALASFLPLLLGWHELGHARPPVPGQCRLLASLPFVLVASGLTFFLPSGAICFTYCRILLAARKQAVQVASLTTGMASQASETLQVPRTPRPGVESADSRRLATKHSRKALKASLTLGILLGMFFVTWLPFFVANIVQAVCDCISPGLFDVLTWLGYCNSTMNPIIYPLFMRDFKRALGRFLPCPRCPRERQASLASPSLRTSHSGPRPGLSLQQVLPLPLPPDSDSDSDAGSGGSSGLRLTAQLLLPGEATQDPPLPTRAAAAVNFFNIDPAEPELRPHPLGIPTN

## Cc1ccc(S(=O)(=O)n2cc(C3=CCN(C)CC3)c3cc(F)ccc32)cc1 [Example 3b, 5-Fluoro-1-(4-methylphenylsulfonyl)-3-(1-methyl-1,2,3,6-tetrahydro-4-pyridinyl)indole]
5-HT7 receptors
  fold greater affinity for the human 5-HT6 receptor relative to the human 5-HT7 receptor: ≥ 60 fold
Human 5-HT6 receptor
  Ki: ≤ 5 nM
Human 5-HT2C
  fold greater affinity for the human 5-HT6 receptor relative to the human 5-HT2C receptor: ≥ 60 fold

## CN1CC=C(c2cn(S(=O)(=O)c3ccccc3)c3ccccc23)CC1 [Example 4a, 3-(1-Methyl-1,2,3,6-tetrahydro-4-pyridinyl)-1-phenylsulfonylindole]
Human 5-HT6 receptor
  Ki: ≤ 5 nM

## CN1CC=C(c2cn(S(=O)(=O)c3cccc4ccccc34)c3c(F)cc(F)cc23)CC1 [Example 4aaa, 5,7-Difluoro-3-(1-methyl-1,2,3,6-tetrahydro-4-pyridinyl)-1-(1-naphthylsulfonyl)indole]
Human 5-HT6 receptor
  Ki: ≤ 5 nM

## COc1ccc(S(=O)(=O)n2cc(C3=CCN(C)CC3)c3ccccc32)cc1 [Example 4b, 1-(4-Methoxyphenylsulfonyl)-3-(1-methyl-1,2,3,6-tetrahydro-4-pyridinyl)indole]
Human 5-HT6 receptor
  Ki: ≤ 50 nM

## CN1CC=C(c2cn(S(=O)(=O)c3ccc(Cl)cc3)c3ccc(F)cc23)CC1 [Example 4bb, 1-(4-Chlorophenylsulfonyl)-5-fluoro-3-(1-methyl-1,2,3,6-tetrahydro-4-pyridinyl)indole]
5-HT7 receptors
  fold greater affinity for the human 5-HT6 receptor relative to the human 5-HT7 receptor: ≥ 60 fold
Human 5-HT6 receptor
  Ki: ≤ 5 nM
Human 5-HT2C
  fold greater affinity for the human 5-HT6 receptor relative to the human 5-HT2C receptor: ≥ 60 fold

## CN1CC=C(c2cn(S(=O)(=O)c3ccc(F)cc3)c3ccccc23)CC1 [Example 4c, 1-(4-Fluorophenylsulfonyl)-3-(1-methyl-1,2,3,6-tetrahydro-4-pyridinyl)indole]
Human 5-HT6 receptor
  Ki: ≤ 5 nM

## CN1CC=C(c2cn(S(=O)(=O)c3ccc(Br)cc3)c3ccc(F)cc23)CC1 [Example 4d, 1-(4-Bromophenylsulfonyl)-5-fluoro-3-(1-methyl-1,2,3,6-tetrahydro-4-pyridinyl)indole]
Human 5-HT6 receptor
  Ki: ≤ 50 nM

## CN1CC=C(c2cn(S(=O)(=O)c3cc(Cl)ccc3Cl)c3ccc(F)cc23)CC1 [Example 4e, 5-Fluoro-1-(2,5-dichlorophenylsulfonyl)-3-(1-methyl-1,2,3,6-tetrahydro-4-pyridinyl)indole]
Human 5-HT6 receptor
  Ki: ≤ 50 nM

## CN1CC=C(c2cn(S(=O)(=O)c3cccc4ccccc34)c3ccc(F)cc23)CC1 [Example 4ee, 5-Fluoro-3-(1-methyl-1,2,3,6-tetrahydro-4-pyridinyl)-1-(1-naphthylsulfonyl)indole]
Human 5-HT6 receptor
  Ki: ≤ 5 nM

## CN1CC=C(c2cn(S(=O)(=O)c3ccc(Cl)c([N+](=O)[O-])c3)c3ccc(F)cc23)CC1 [Example 4f, 1-(4-Chloro-3-nitrophenylsulfonyl)-5-fluoro-3-(1-methyl-1,2,3,6-tetrahydro-4-pyridinyl)indole]
Human 5-HT6 receptor
  Ki: ≤ 50 nM

## CN1CC=C(c2cn(S(=O)(=O)c3ccc4ccccc4c3)c3ccc(F)cc23)CC1 [Example 4ff, 5-Fluoro-3-(1-methyl-1,2,3,6-tetrahydro-4-pyridinyl)-1-(2-naphthylsulfonyl)indole]
5-HT7 receptors
  fold greater affinity for the human 5-HT6 receptor relative to the human 5-HT7 receptor: ≥ 60 fold
Human 5-HT2C
  fold greater affinity for the human 5-HT6 receptor relative to the human 5-HT2C receptor: ≥ 60 fold

## Cc1cc(C)c(S(=O)(=O)n2cc(C3=CCN(C)CC3)c3cc(F)ccc32)c(C)c1 [Example 4g, 5-Fluoro-3-(1-methyl-1,2,3,6-tetrahydro-4-pyridinyl)-1-(2,4,6-trimethylphenylsulfonyl)indole]
Human 5-HT6 receptor
  Ki: ≤ 50 nM

## CN1CC=C(c2cn(S(=O)(=O)c3ccc(F)cc3)c3ccc(Cl)cc23)CC1 [Example 4gg, 5-Chloro-1-(4-fluorophenylsulfonyl)-3-(1-methyl-1,2,3,6-tetrahydro-4-pyridinyl)indole]
Human 5-HT6 receptor
  Ki: ≤ 5 nM

## Cc1ccc(S(=O)(=O)n2cc(C3=CCN(C)CC3)c3cc(OC4CCCCC4)ccc32)cc1 [Example 4i, 5-Cyclohexyloxy-1-(4-methylphenylsulfonyl)-3-(1-methyl-1,2,3,6-tetrahydro-4-pyridinyl)indole]
5-HT7 receptors
  fold greater affinity for the human 5-HT6 receptor relative to the human 5-HT7 receptor: ≥ 60 fold
Human 5-HT6 receptor
  Ki: ≤ 50 nM
Human 5-HT2C
  fold greater affinity for the human 5-HT6 receptor relative to the human 5-HT2C receptor: ≥ 60 fold

## CN1CC=C(c2cn(S(=O)(=O)c3ccc(Cl)cc3)c3ccc(OC(F)(F)F)cc23)CC1 [Example 4jj, 1-(4-Chlorophenylsulfonyl)-3-(1-methyl-1,2,3,6-tetrahydro-4-pyridinyl)-5-trifluoromethoxyindole]
Human 5-HT6 receptor
  Ki: ≤ 5 nM

## CN1CC=C(c2cn(S(=O)(=O)c3ccc(F)cc3)c3cc(Br)ccc23)CC1 [Example 4k, 6-Bromo-1-(4-fluorophenylsulfonyl)-3-(1-methyl-1,2,3,6-tetrahydro-4-pyridinyl)-indole]
Human 5-HT6 receptor
  Ki: ≤ 50 nM

## Cc1ccc(S(=O)(=O)n2cc(C3=CCN(C)CC3)c3cc(OC(F)(F)F)ccc32)cc1 [Example 4kk, 1-(4-Methylphenylsulfonyl)-3-(1-methyl-1,2,3,6-tetrahydro-4-pyridinyl)-5-trifluoromethoxyindole]
Human 5-HT6 receptor
  Ki: ≤ 5 nM

## Cc1ccc(S(=O)(=O)n2cc(C3=CCN(C)CC3)c3cc(C(F)(F)F)ccc32)cc1 [Example 4qq, 1-(4-Methylphenylsulfonyl)-3-(1-methyl-1,2,3,6-tetrahydro-4-pyridinyl)-5-trifluoromethylindole hydrochloride]
Human 5-HT6 receptor
  Ki: ≤ 50 nM

## Cc1ccc(S(=O)(=O)n2cc(C3=CCN(C)CC3)c3cc(F)cc(F)c32)cc1 [Example 4ww, 5,7-Difluoro-3-(1-methyl-1,2,3,6-tetrahydro-4-pyridinyl)-1-(4-methylphenylsulfonyl)indole]
Human 5-HT6 receptor
  Ki: ≤ 5 nM

## CN1CC=C(c2cn(S(=O)(=O)c3ccccc3Br)c3ccc(F)cc23)CC1 [Example 4z, 1-(2-Bromophenylsulfonyl)-5-fluoro-3-(1-methyl-1,2.3,6-tetrahydro-4-pyridinyl)indole]
5-HT7 receptors
  fold greater affinity for the human 5-HT6 receptor relative to the human 5-HT7 receptor: ≥ 60 fold
Human 5-HT6 receptor
  Ki: ≤ 5 nM
Human 5-HT2C
  fold greater affinity for the human 5-HT6 receptor relative to the human 5-HT2C receptor: ≥ 60 fold

## CN1CC=C(c2cn(S(=O)(=O)c3ccc(Cl)cc3)c3c(F)cc(F)cc23)CC1 [Example 4zz, 1-(4-Chlorophenylsulfonyl)-5,7-difluoro-3-(1-methyl-1,2,3,6-tetrahydro-4-pyridinyl)indole]
Human 5-HT6 receptor
  Ki: ≤ 5 nM
